Experimental findings from US9187472B2 (AbbVie Inc., priority 2012, dated 2015) are described below.

Experiment [1] addresses NAMPT (human, recombinant, C-terminally His-tagged) (Homo sapiens, UniProt P43490). The experiment in a line: Time-Resolved Fluorescence Resonance Energy Transfer (TR-FRET) Binding Assay of NAMPT. The settings on record: without substrates; 6.8 nM NAMPT, 200 nM probe, 3 hours equilibration. The method, then:
Determination of the utility of compounds having Formula (I) as binders to and inhibitors of NAMPT was performed using Time-Resolved Fluorescence Resonance Energy Transfer (TR-FRET) binding assays.
Time-Resolved Fluorescence Resonance Energy Transfer (TR-FRET) Binding Assay of NAMPT
Test compounds were serially diluted (typically 11 half log dilutions) in neat DMSO to 50× final concentrations prior to dilution with assay buffer (50 mM HEPES (NaOH), pH 7.5, 100 mM NaCl, 10 mM MgCl2, 1 mM DTT, 1% Glycerol) to 3× and 6% DMSO. Six μL were transferred to 384-well low-volume plates (Owens Corning #3673). To this, […] of a 1.5× solution containing enzyme, probe and antibody were added. Final concentrations in the 18 μL, reactions were 1× assay buffer, 2% DMSO, 6.8 nM NAMPT (human, recombinant, C-terminally His-tagged), 200 nM probe (a potent nicotinamide-competitive inhibitor conjugated to Oregon Green 488) and 1 nM Tb-anti-His antibody (Invitrogen # PV5895). Reactions were equilibrated at room temperature for 3 hours prior to reading on an Envision multi-label plate reader (Perkin Elmer; Ex=337 nm, Em=520 and 495 nm). Time-resolved FRET ratios (Em520/Em495) were normalized to controls, plotted as a function of compound concentration and fit with the four-parameter logistic equation to determine IC50s.
Background: TR-FRET usually uses a lanthanide donor and a delayed reading to cut background.

The next experiment addresses NAMPT (Homo sapiens, UniProt P43490). The experiment in a line: TR-FRET Binding Assay of NAMPT with PRPP. The settings on record: with 200 μM PRPP and 2.5 mM ATP; 2 nM NAMPT, 2 nM probe, 16 hours equilibration. The method, then:
Time-Resolved Fluorescence Resonance Energy Transfer (TR-FRET) Binding Assay of NAMPT with PRPP
Compound handling and data processing were identical to the assay in the absence of substrates (above). Final concentrations were 1× assay buffer, 2% DMSO, 2 nM NAMPT, 2 nM probe, 1 nM Tb-anti-His antibody (Invitrogen # PV5895), 200 μM PRPP and 2.5 mM ATP. Reactions were equilibrated for 16 hours prior to measurement to allow for potential enzymatic modification of test compounds.

The next experiment deals with PC3 cells. The experiment in a line: NAMPT Cell Proliferation Assay. The class given is cell-based. The settings on record: Homo sapiens, PC-3, 120 h, 5 days incubation, cell viability by Cell Titer Glo. An outline of the steps:
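Following overnight attachment in RPMI with 10% heat-inactivated FBS, PC3 cells at 500 per well receive compounds spanning 10 μM down to 1×10^−5 μM. Growth is assessed by luminescent viability read after 5 days.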
(In general: Cellular ATP, detected with luciferase, serves as a proxy for viable cell number.)

Sequence of NAMPT (P43490 whole entry): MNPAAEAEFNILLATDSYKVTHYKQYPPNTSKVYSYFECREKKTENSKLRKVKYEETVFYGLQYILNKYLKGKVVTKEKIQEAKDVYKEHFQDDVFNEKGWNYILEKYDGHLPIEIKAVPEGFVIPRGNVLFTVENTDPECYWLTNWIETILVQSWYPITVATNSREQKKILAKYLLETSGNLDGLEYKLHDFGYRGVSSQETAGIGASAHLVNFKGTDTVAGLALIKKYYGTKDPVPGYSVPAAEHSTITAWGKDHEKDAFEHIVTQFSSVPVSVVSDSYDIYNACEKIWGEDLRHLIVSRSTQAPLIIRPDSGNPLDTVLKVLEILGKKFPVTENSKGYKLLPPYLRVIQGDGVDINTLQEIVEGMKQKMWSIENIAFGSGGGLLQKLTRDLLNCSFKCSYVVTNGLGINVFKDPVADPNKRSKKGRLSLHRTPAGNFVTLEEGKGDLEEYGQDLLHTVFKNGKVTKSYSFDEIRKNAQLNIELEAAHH
Sequence of NAMPT (human, recombinant, C-terminally His-tagged) (P43490 whole entry): as above

For the compound `O=C(NCc1ccn2ccnc2c1)Nc1ccc(C2CCN(C(=O)C3CCCO3)CC2)cc1` (stereo not shown) [Example 220, 1-(imidazo[1,2-a]pyridin-7-ylmethyl)-3-{4-[1-(tetrahydrofuran-2-ylcarbonyl)piperidin-4-yl]phenyl}urea], the IC50 (usually the concentration that inhibits the measured activity by half) stood at 74.2 nM in experiment [1], 0.278 nM at NAMPT and 5.73 nM in the experiment with PC3 cells.

With `O=C(NCc1ccn2ccnc2c1)c1ccc(C2CCN(C(=O)C3COCCO3)C2)cc1` (stereo not shown) [Example 377, 4-[1-(1,4-dioxan-2-ylcarbonyl)pyrrolidin-3-yl]-N-(imidazo[1,2-a]pyridin-7-ylmethyl)benzamide], the IC50 in experiment [1] was 1670 nM; at NAMPT, 0.275 nM; in the experiment on PC3 cells, above 10000 nM.

Consider `O=C(CCC1CCCC1)Nc1ccc(C(=O)NCc2ccc3nccn3c2)cc1` [Example 81, 4-[(3-cyclopentylpropanoyl)amino]-N-(imidazo[1,2-a]pyridin-6-ylmethyl)benzamide], for which the IC50 in experiment [1] was found to be 15.5 nM; on NAMPT, 2.68 nM; in the experiment with PC3 cells, 7.1 nM.

Turning to `CC(C)[C@@H]1COC(=O)N1c1ncc(C(=O)NCc2ccn3ccnc3c2)s1` [Example 181, N-(imidazo[1,2-a]pyridin-7-ylmethyl)-2-[(4R)-2-oxo-4-(propan-2-yl)-1,3-oxazolidin-3-yl]-1,3-thiazole-5-carboxamide], the IC50 was determined as 349 nM in experiment [1], 0.283 nM at NAMPT and 7.75 nM in the experiment on PC3 cells.

As for `O=C(NCc1ccn2ccnc2c1)Nc1ccc(C2CCN(C(=O)CN3CCOCC3)CC2)cc1` [Example 224, 1-(imidazo[1,2-a]pyridin-7-ylmethyl)-3-{4-[1-(morpholin-4-ylacetyl)piperidin-4-yl]phenyl}urea], the IC50 in experiment [1] worked out at 233 nM; at NAMPT, 0.555 nM; in the experiment with PC3 cells, 23 nM.

Regarding `O=C(NCc1ccn2ccnc2c1)c1ccc(C2CCN(C(=O)c3ccccc3)C2)cc1` (stereo not shown) [Example 370, 4-(1-benzoylpyrrolidin-3-yl)-N-(imidazo[1,2-a]pyridin-7-ylmethyl)benzamide], the IC50 in experiment [1] worked out at 47.6 nM; on NAMPT, 0.175 nM; in the experiment on PC3 cells it was 9.93 nM.

On to `CC1(C(=O)N2CC(c3ccc(C(=O)NCc4ccn5ccnc5c4)cc3)C2)CCCCC1` [Example 665, N-(imidazo[1,2-a]pyridin-7-ylmethyl)-4-{1-[(1-methylcyclohexyl)carbonyl]azetidin-3-yl}benzamide], for which the IC50 in experiment [1] came to 123 nM; on NAMPT, 0.357 nM; in the experiment on PC3 cells it was 7.28 nM.

On to `O=C(NCc1ccn2ccnc2c1)Nc1ccc(C2CCN(C(=O)C3CCOCC3)C2)cc1` (stereo not shown) [Example 389, 1-(imidazo[1,2-a]pyridin-7-ylmethyl)-3-{4-[1-(tetrahydro-2H-pyran-4-ylcarbonyl)pyrrolidin-3-yl]phenyl}urea], for which the IC50 was determined as 584 nM in experiment [1], 0.617 nM on NAMPT and 78.3 nM in the experiment on PC3 cells.

For the compound `O=C(NCc1ccn2ccnc2c1)c1ccc(C2CCN(C(=O)c3ccccc3F)CC2)s1` [Example 677, 5-[1-(2-fluorobenzoyl)piperidin-4-yl]-N-(imidazo[1,2-a]pyridin-7-ylmethyl)thiophene-2-carboxamide], the values for the IC50 (in experiment [1]; on NAMPT; in the experiment with PC3 cells) were 1.77 nM, 0.796 nM and 0.613 nM, respectively.

As for `O=C(NCc1ccn2ccnc2c1)c1ccc(-c2cnn(C3CCOCC3)c2)s1` [Example 410, N-(imidazo[1,2-a]pyridin-7-ylmethyl)-5-[1-(tetrahydro-2H-pyran-4-yl)-1H-pyrazol-4-yl]thiophene-2-carboxamide], the figures for the IC50 (in experiment [1]; at NAMPT) were 20.7 nM and 0.169 nM, respectively.

Regarding `COCCC(=O)N(Cc1ccc(C#N)cc1)c1ncc(C(=O)NCc2ccn3ccnc3c2)s1` [Example 57, 2-[(4-cyanobenzyl)(3-methoxypropanoyl)amino]-N-(imidazo[1,2-a]pyridin-7-ylmethyl)-1,3-thiazole-5-carboxamide], the values for the IC50 (in experiment [1]; with PC3 cells) were 5.8 nM and 5.76 nM, respectively.
